{
  "source": "patent US20140107113A1",
  "about": "“PHARMACEUTICAL COMPOSITION COMPRISING A TRPA1 ANTAGONIST AND A BETA-2 AGONIST” (GLENMARK PHARMACEUTICALS SA, priority 2011, published 2014)",
  "data": [
    {"molecular_target": "T1, human TRPA1 receptor (Homo sapiens, UniProt O75762)", "T1 construct": "expressed in transfected cells; host or cells: CHO cells", "T1 sequence (O75762 whole entry)": "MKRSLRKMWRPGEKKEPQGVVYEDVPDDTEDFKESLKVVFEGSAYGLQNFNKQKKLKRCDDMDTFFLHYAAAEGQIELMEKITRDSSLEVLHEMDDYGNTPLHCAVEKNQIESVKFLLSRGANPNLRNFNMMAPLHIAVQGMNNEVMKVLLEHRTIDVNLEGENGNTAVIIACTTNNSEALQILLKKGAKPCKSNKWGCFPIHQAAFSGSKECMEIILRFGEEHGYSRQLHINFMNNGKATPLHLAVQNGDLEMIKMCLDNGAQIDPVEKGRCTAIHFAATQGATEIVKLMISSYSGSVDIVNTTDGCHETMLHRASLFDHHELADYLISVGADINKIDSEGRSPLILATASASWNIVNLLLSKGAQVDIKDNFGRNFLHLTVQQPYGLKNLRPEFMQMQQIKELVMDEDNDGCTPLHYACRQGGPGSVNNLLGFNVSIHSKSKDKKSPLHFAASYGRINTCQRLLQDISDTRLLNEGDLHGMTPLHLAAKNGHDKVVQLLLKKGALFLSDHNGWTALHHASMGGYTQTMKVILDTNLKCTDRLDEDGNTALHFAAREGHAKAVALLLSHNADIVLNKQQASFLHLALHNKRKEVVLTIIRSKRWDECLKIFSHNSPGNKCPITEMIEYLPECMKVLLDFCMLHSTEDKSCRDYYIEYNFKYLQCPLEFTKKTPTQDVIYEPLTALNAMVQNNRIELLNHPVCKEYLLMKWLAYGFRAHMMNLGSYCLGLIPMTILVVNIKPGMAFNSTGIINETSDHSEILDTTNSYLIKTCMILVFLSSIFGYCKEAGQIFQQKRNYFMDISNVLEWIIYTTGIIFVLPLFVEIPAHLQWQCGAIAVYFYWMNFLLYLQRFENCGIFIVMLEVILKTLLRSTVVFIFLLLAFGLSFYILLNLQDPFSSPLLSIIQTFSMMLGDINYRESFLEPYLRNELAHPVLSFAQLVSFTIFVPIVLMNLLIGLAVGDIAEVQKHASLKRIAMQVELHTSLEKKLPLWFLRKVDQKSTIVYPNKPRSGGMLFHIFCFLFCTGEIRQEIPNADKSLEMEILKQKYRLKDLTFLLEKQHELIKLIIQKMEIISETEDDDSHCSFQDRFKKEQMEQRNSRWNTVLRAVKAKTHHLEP", "test": "Inhibition of AITC induced cellular uptake of radioactive calcium in human TRPA1 expressing CHO cells", "assay_type": "cell-based", "details": "read-out: hTRPA1 IC50 values", "protocol": "The human IC50 values were measured by the following method:\nThe inhibition of TRPA1 receptor activation is measured as inhibition of allylisothiocyanate (AITC) induced cellular uptake of radioactive calcium.\nTest compound solution is prepared in a suitable solvent.\nHuman TRPA1 expressing CHO cells are grown in suitable medium. Cells are treated with test compounds followed by addition of AITC.\nCells are washed, lysed and the radioactivity in the lysate is measured in Packard Top count after addition of liquid scintillant.\nThe concentration response curves for compounds are plotted as a % of maximal response obtained in the absence of test antagonist, and the IC50 values are calculated from such concentration response curve by nonlinear regression analysis using GraphPad PRISM software.", "units": {"IC50": "nM"}, "values": [
      {"compound": "CC(C)Cc1ccc(-c2csc(NC(=O)Cc3cccc4c3c(=O)n(C)c(=O)n4C)n2)cc1", "note": "[Compound 23]", "IC50": 43.9},
      {"compound": "Cc1oc2c(c1CC(=O)Nc1nc(-c3ccc(OC(F)(F)F)c(Cl)c3)cs1)c(=O)n(C)c(=O)n2C", "note": "[Compound 73]", "IC50": 8.54},
      {"compound": "Cc1oc2c(c1CC(=O)Nc1nc(-c3ccc(C(F)(F)F)c(F)c3)cs1)c(=O)n(C)c(=O)n2C", "note": "[Compound 65]", "IC50": 6.65},
      {"compound": "Cn1c(=O)c2c(ccn2CC(=O)Nc2nc(-c3cc(Cl)c(OCCC(F)(F)F)c(Cl)c3)cs2)n(C)c1=O", "note": "[Compound 35]", "IC50": 18},
      {"compound": "Cn1c(=O)c2c(ccn2CC(=O)Nc2nc(-c3cc(F)c(OCC(F)(F)F)c(F)c3)cs2)n(C)c1=O", "note": "[Compound 37]", "IC50": 12.3},
      {"compound": "Cn1c(=O)c2c(ncn2CC(=O)Nc2nc(-c3ccc(Br)cc3)cs2)n(C)c1=O", "note": "[Compound 91]", "IC50": 451},
      {"compound": "Cc1oc2c(c1CC(=O)/N=c1\\scc(-c3ccc(OC(F)(F)F)c(Cl)c3)n1COC(=O)[C@@H](N)C(C)C)c(=O)n(C)c(=O)n2C", "note": "[Compound 95]", "IC50": 88.5},
      {"compound": "Cn1c(=O)c2c(CC(=O)Nc3nc(-c4ccc(C(F)(F)F)c(F)c4)cs3)csc2n(C)c1=O", "note": "[Compound 51]", "IC50": 4.84},
      {"compound": "Cc1oc2c(c1CC(=O)N=c1scc(-c3ccc(OC(F)(F)F)c(Cl)c3)n1COC(=O)CN)c(=O)n(C)c(=O)n2C", "note": "[Compound 98]", "IC50": 54.3},
      {"compound": "Cn1c(=O)c2c(CC(=O)Nc3nc(-c4ccc(OC(F)(F)F)c(F)c4)cs3)nccc2n(C)c1=O", "note": "[Compound 88]", "IC50": 11.4},
      {"compound": "Cn1c(=O)c2c(CC(=O)Nc3nc(-c4ccc(F)c(C(F)(F)F)c4F)cs3)csc2n(C)c1=O", "note": "[Compound 52]", "IC50": 2.49},
      {"compound": "Cn1c(=O)c2c(cnn2CC(=O)Nc2nc(-c3cc(Cl)c(OCC(C)(C)C)c(Cl)c3)cs2)n(C)c1=O", "note": "[Compound 44]", "IC50": 8.36},
      {"compound": "Cn1c(=O)c2c(CC(=O)Nc3nc(-c4ccc(C(F)(F)F)c(F)c4F)cs3)nsc2n(C)c1=O", "note": "[Compound 84]", "IC50": 5.35},
      {"compound": "Cn1c(=O)c2c(CC(=O)Nc3nc(-c4cc(F)c(OCC(F)(F)F)c(F)c4)cs3)coc2n(C)c1=O", "note": "[Compound 56]", "IC50": 3.38},
      {"compound": "COCCCOc1cccc(C2NC(=S)NC3=C2C(=O)c2ccccc23)c1", "note": "(centres unmarked) [Compound 90]", "IC50": 5.61},
      {"compound": "Cn1c(=O)c2c(CC(=O)Nc3nc(-c4ccc(F)c(C(F)(F)F)c4F)cs3)onc2n(C)c1=O", "note": "[Compound 92]", "IC50": 17.1},
      {"compound": "Cn1c(=O)c2c(CC(=O)Nc3ccn(-c4cccc(C(F)(F)F)c4)n3)cccc2n(C)c1=O", "note": "[Compound 16]", "IC50": 58.9}
    ]}
  ]
}
